# Key:
# [1] = system: STAT5 Y694 phosphorylation; experiment: Protein electrophoresis and blotting of STAT5 Y694 phosphorylation in Jurkat cells stimulated with human interferon beta; format: cell-based; details: for Example of Effect 1: Inhibiting Ability (Protein Electrophoresis and Blotting): observed pSTAT5 bands at 10 μM and 100 μM; for Inhibiting Ratio (0% for vehicle control): 1 hour pretreatment, 20 ng/ml human interferon beta 30 minutes, pSTAT5/GAPDH
# Summary of the method: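 Serum-free Jurkat cells pretreated with compound 1 h, then stimulated with 20 ng/ml human interferon beta for 30 min at 37° C. pSTAT5 measured by western blot with chemiluminescence, normalized to GAPDH and expressed as percent of DMSO control.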
# [2] = system: STAT5 Y694 phosphorylation; experiment: HTRF experiment: STAT5 Y694 phosphorylation in Hela cells stimulated with human interferon beta; format: cell-based; details: 2 hours pretreatment, 10 nM human interferon beta 30 minutes
# Protocol: Example of Effect 3: HTRF Experiment
# Human Interferon 3 (IFN-0) (GenScript, Cat #P01574), STAT5 Y694 phosphorylation detection kit (STAT5 phospho-Y694 kit) (Cisbio; Cat #64AT5PEG).
# Hela cells (ATCC American Standard Culture Center, CCL-2) were cultured in a 96-well plate at a density of 3×10^4 cells/well with DMEM medium containing 5% fetal bovine serum and maintained at 37° C. in a humidified incubator with 5% carbon dioxide overnight. On the second day, the original DMEM medium in the 96-well plate was sucked dry, and an equal volume of medium containing different concentrations of compounds (the mother liquor of the compound prepared by dimethyl sulfoxide was diluted in the medium at the required concentration) was added for pretreatment for 2 hours, and then it was placed in an incubator at 37° C. Then human interferon beta with a final concentration of 10 nM was added to stimulate, and it was gently shaken to mix well and then placed in an incubator at 37° C. for 30 minutes.
# The medium was removed, an appropriate volume of PBS was added to wash, and then it was sucked dry. Then 40 microliters of 1× Lysis Buffer was added to each well and it was stood for 30 minutes at room temperature (1 ml 1× lysate preparation: 740 μl ddH2O was added to 250 μl 4× lysate and 10 μl Blocking reagent and it was mixed thoroughly). After 30 minutes, the cells were repeatedly blown until the lysis solution was not viscous (avoiding blowing out bubbles) to achieve sufficient lysis.
# After overnight incubation, the signals of 665 nm and 620 nm were detected in a multifunctional microplate reader. The calculation formula for the detection of STAT5 Y694 phosphorylation is: Ratio=[(signal 665 nm)/(signal 620 nm)]×10^4. Treatment with dimethyl sulfoxide alone was the baseline control (Ratiobase), and the human interferon β stimulation without addition of the compound was the STAT5 Y694 full phosphorylation activation control (Ratiostimulation), the inhibition rate of STAT5 Y694 phosphorylation of different samples was normalized: Inhibition rate=[1−(RatioExperiment−Ratiobase)/(Ratiostimulation−Ratiobase)]*100.
SMILES,Example of Effect 1: Inhibiting Ability (Protein Electrophoresis and Blotting) [1],Example of Effect 3: Inhibiting Ratio@10 μM (HTRF Experiment) [2] [%],Inhibiting Ratio (0% for vehicle control) ([1]; 1 μM) [%],Inhibiting Ratio (0% for vehicle control) ([1]; 10 μM) [%],Inhibiting Ratio (0% for vehicle control) ([1]; 100 μM) [%]
"O=C1CN(C2CCN(C(=O)Cc3ccc(C(F)(F)F)cc3)CC2)c2ccccc2N1 [GEN1-052, 4-(1-(2-(4-(trifluoromethyl)phenyl)acetyl)piperidin-4-yl)-3,4-dihydroquinoxaline-2(1H)-one]",+,8.83,,,
"Nc1nc2ccccc2n1C1CCN(C(=O)Cc2ccc(C(F)(F)F)cc2)CC1 [GEN1-055, 1-(4-(2-amino-1H-benzo[d]imidazol-1-yl)piperidin-1-yl)-2-(4-(trifluoromethyl)phenyl)ethanone]",+,16.88,25.0,50.0,89.6
"CC(=O)Nc1ccccc1NC1CCN(C(=O)Cc2ccc(C(F)(F)F)cc2)CC1 [GEN1-057, N-(2-((1-(2-(4-(trifluoromethyl)phenyl)acetyl)piperidin-4-yl)amino)phenyl)acetamide]",++,66.22,,,
"O=C(Cc1ccc2ncccc2c1)N1CCC(n2c(=O)[nH]c3ccccc32)CC1 [GEN1-075, 1-(1-(2-(quinolin-6-yl)acetyl)piperidin-4-yl)-1H-benzo[d]imidazol-2(3H)-one]",+,10.79,,,
"O=C(Cc1ccc(C(F)(F)F)cc1)N1CCC(n2c(=O)[nH]c3ccc(C4CC4)cc32)CC1 [GEN1-089, 6-cyclopropyl-1-(1-(2-(4-(trifluoromethyl)phenyl)acetyl)piperidin-4-yl)-1H-benzo[d]imidazol-2(3H)-one]",+,7.83,,,
"O=C(Cc1ccc(C(F)(F)F)cc1)N1CCC(n2c(=O)[nH]c3cccc([N+](=O)[O-])c32)CC1 [GEN1-091, 7-nitro-1-(1-(2-(4-(trifluoromethyl)phenyl)acetyl)piperidin-4-yl)-1H-benzo[d]imidazol-2(3H)-one]",+,17.60,,,
"O=C(C[C@H]1CC[C@@H](C(F)(F)F)CC1)N1CCC(n2c(=O)[nH]c3ccccc32)CC1 [GEN1-107, (Cis)-1-(1-(2-(4-(trifluoromethyl)cyclohexyl)acetyl)piperidin-4-yl)-1H-benzo[d]imidazol-2(3H)-one]",+,37.09,,,
"O=C(C[C@H]1CC[C@H](C(F)(F)F)CC1)N1CCC(n2c(=O)[nH]c3ccccc32)CC1 [GEN1-108, (trans)-1-(1-(2-(4-(trifluoromethyl)cyclohexyl)acetyl)piperidin-4-yl)-1H-benzo[d]imidazol-2(3H)-one]",+,38.81,,,
"O=C(Cc1ccc2c(c1)OCO2)N1CCC(n2c(=O)[nH]c3cccc(C(F)(F)F)c32)CC1 [GEN1-116, 1-(1-(2-(benzo[d][1,3]dioxol-5-yl)acetyl)piperidin-4-yl)-7-(trifluoromethyl)-1,3-dihydro-2H-benzo[d]imidazol-2-one]",+,35.01,,,
"O=C(Cc1ccc2ncccc2c1)N1CCC(n2c(=O)[nH]c3cccc(C(F)(F)F)c32)CC1 [GEN1-117, 1-(1-(2-(quinolin-6-yl)acetyl)piperidin-4-yl)-7-(trifluoromethyl)-1H-benzo[d]imidazol-2(3H)-one]",++,89.31,,,
"CN(C)c1ccc(CC(=O)N2CCC(n3c(=O)[nH]c4cccc(C(F)(F)F)c43)CC2)cc1 [GEN1-118, 1-(1-(2-(4-(dimethylamino)phenyl)acetyl)piperidin-4-yl)-7-(trifluoromethyl)-1,3-dihydro-2H-benzo[d]imidazol-2-one]",+,27.57,,,
O=c1[nH]c2ccccc2n1C1CCN(C(=S)Cc2ccc(C(F)(F)F)cc2)CC1 [GEN1-128],+,13.88,,,
"O=C1CN(C2CCN(C(=O)Cc3ccc(C(F)(F)F)cc3)CC2)c2cccc(C(F)(F)F)c2N1 [GEN1-134, 8-(trifluoromethyl)-4-(1-(2-(4-(trifluoromethyl)phenyl)acetyl)piperidin-4-yl)-3,4-dihydroquinoxaline-2(1H)-one]",−,3.06,,,
"O=C(Cc1ccc2ncccc2c1)N1CCC(n2c(=S)[nH]c3ccccc32)CC1 [GEN1-137, 2-(quinolin-6-yl)-1-(4-(2-thio-2,3-dihydro-1H-benzo(d)imidazol-1-yl)piperidin-1-yl)ethan-1-one]",+,19.51,,,
"O=C(Cc1ccc2nccnc2c1)N1CCC(n2c(=O)[nH]c3cccc(C(F)(F)F)c32)CC1 [GEN1-140, 1-(1-(2-(quinoxalin-6-yl)acetyl)piperidin-4-yl)-7-(trifluoromethyl)-1,3-dihydro-2H-benzo[d]imidazol-2-one]",+,53.79,,,
"O=C(Nc1ccc(C(F)(F)F)cc1)N1CCC(n2c(=O)[nH]c3cccc(C(F)(F)F)c32)CC1 [GEN1-149, 4-(2-oxo-7-(trifluoromethyl)-2,3-dihydro-1H-benzo[d]imidazol-1-yl)-N-(4-(trifluoromethyl)phenyl)piperidin-1-carboxamide]",+,0.49,,,
"N#Cc1cccc2[nH]c(=O)n(C3CCN(C(=O)Cc4ccc5ncccc5c4)CC3)c12 [GEN1-151, 2-oxo-3-(1-(2-(quinolin-6-yl)acetyl)piperidin-4-yl)-2,3-dihydro-1H-benzo[d]imidazol-4-carbonitrile]",+,39.02,,,
"O=C(Cc1ccc(C(F)(F)F)cc1)N1CCC(n2c(=O)[nH]c3c(N4CCOCC4)cccc32)CC1 [GEN1-154, 4-morpholino-1-(1-(2-(4-(trifluoromethyl)phenyl)acetyl)piperidin-4-yl)-1H-benzo[d]imidazol-2(3H)-one]",−,6.10,,,
"O=C(Cc1ccc(Cl)cc1)N1CCC(n2c(=O)[nH]c3cccc(C(F)(F)F)c32)CC1 [GEN1-156, 1-(1-(2-(4-chlorophenyl)acetyl)piperidin-4-yl)-7-(trifluoromethyl)-1H-benzo[d]imidazol-2(3H)-one]",+,47.04,,,
"O=C(Cc1ccc(Br)cc1)N1CCC(n2c(=O)[nH]c3cccc(C(F)(F)F)c32)CC1 [GEN1-157, 1-(1-(2-(4-bromophenyl)acetyl)piperidin-4-yl)-7-(trifluoromethyl)-1H-benzo[d]imidazol-2(3H)-one]",+,28.83,,,
"CC(C)(C(=O)N1CCC(n2c(=O)[nH]c3cccc(C(F)(F)F)c32)CC1)c1ccc(C(F)(F)F)cc1 [GEN1-158, 1-(1-(2-methyl-2-(4-(trifluoromethyl)phenyl)propionyl)piperidin-4-yl)-7-(trifluoromethyl)-1H-benzo[d]imidazol-2(3H)-one]",−,0.16,,,
"O=C(Cc1ccc2c(c1)OCCO2)N1CCC(n2c(=O)[nH]c3cccc(C(F)(F)F)c32)CC1 [GEN1-159, 1-(1-(2-(2,3-dihydrobenzo[b][1,4]dioxin-6-yl)acetyl)piperidin-4-yl)-7-(trifluoromethyl)-1,3-dihydro-2H-benzo[d]imidazol-2-one]",+,22.99,,,

# Reference: patent US20230099441A1, “HETEROCYCLIC COMPOUND, APPLICATION THEREOF, AND COMPOSITION CONTAINING SAME” (GenEros Biopharma Ltd., priority 2019, published 2023)
